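48-hour exposure; five concentrations; linearly interpolated endpoints. TGI: concentration producing complete growth inhibition.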
How the values were obtained:
Experiment in all cases: DTP human tumour cell line panel, 48 h
COLO 205 colon = system: COLO 205 colon
CAKI-1 renal = system: CAKI-1 renal
OVCAR-3 ovarian = system: OVCAR-3 ovarian
U251 CNS = system: U251 CNS
SK-OV-3 ovarian = system: SK-OV-3 ovarian
MDA-MB-231 breast = system: MDA-MB-231 breast
OVCAR-8 ovarian = system: OVCAR-8 ovarian
HL-60(TB) leukemia = system: HL-60(TB) leukemia
MCF7 breast = system: MCF7 breast
NCI-H23 lung = system: NCI-H23 lung
OVCAR-4 ovarian = system: OVCAR-4 ovarian
SF-268 CNS = system: SF-268 CNS
HOP-62 NSCLC = system: HOP-62 NSCLC
MDA-MB-435 = system: MDA-MB-435
SK-MEL-2 melanoma = system: SK-MEL-2 melanoma
786-0 renal = system: 786-0 renal
SR leukemia = system: SR leukemia
UACC-257 melanoma = system: UACC-257 melanoma
SF-295 CNS = system: SF-295 CNS
SF-539 CNS = system: SF-539 CNS
SK-MEL-28 melanoma = system: SK-MEL-28 melanoma
HCT-116 colon = system: HCT-116 colon
UACC-62 melanoma = system: UACC-62 melanoma
ACHN renal = system: ACHN renal
OVCAR-5 ovarian = system: OVCAR-5 ovarian
HT29 colon = system: HT29 colon
SNB-75 CNS = system: SNB-75 CNS
A498 renal = system: A498 renal
TK-10 renal = system: TK-10 renal
IGROV1 ovarian = system: IGROV1 ovarian
BT-549 breast = system: BT-549 breast
T-47D breast = system: T-47D breast
NCI-H460 lung = system: NCI-H460 lung
PC-3 prostate = system: PC-3 prostate
MOLT-4 leukemia = system: MOLT-4 leukemia
A549 NSCLC = system: A549 NSCLC
RPMI-8226 leukemia = system: RPMI-8226 leukemia
SW-620 colon = system: SW-620 colon
NCI/ADR-RES ovarian = system: NCI/ADR-RES ovarian
NCI-H226 lung = system: NCI-H226 lung
M14 melanoma = system: M14 melanoma
NCI-H522 lung = system: NCI-H522 lung
UO-31 renal = system: UO-31 renal
CCRF-CEM leukemia = system: CCRF-CEM leukemia
SK-MEL-5 melanoma = system: SK-MEL-5 melanoma
LOX IMVI melanoma = system: LOX IMVI melanoma
EKVX NSCLC = system: EKVX NSCLC
KM12 colon = system: KM12 colon
MDA-N = system: MDA-N
HS 578T breast = system: HS 578T breast
SN12C renal = system: SN12C renal
HCT-15 colon = system: HCT-15 colon
SNB-19 CNS = system: SNB-19 CNS
K-562 leukemia = system: K-562 leukemia
DU-145 prostate = system: DU-145 prostate

Measured: TGI

CC1COC(c2cn[nH]c2C(N)=O)C1O (stereo not given)
> 100 µM: all assays above

CN(C)C1C(CO)OC(n2cnc3c(N)ncnc32)C1O (stereo not given)
> 100 µM: all assays above

Reference: PubChem BioAssay (NCI)
